# Data from patent US20100267637A1, “TREATMENT OF MELANOMA WITH ALPHA THYMOSIN PEPTIDES IN COMBINATION WITH A KINASE INHIBITOR” (SciClone Pharmaceuticals, Inc., priority 2007, published 2010).
# System: murine B16 melanoma cells
# Assay: Anti-tumor effect: tumor size / tumor volume in mice bearing subcutaneous B16 melanoma
# Format: in vivo, C57BL/6 mice
# Design: key to Tumor measurement L (length) / Tumor measurement W (width): The sign “—” indicates that tumor does not reach a measurable size
# Conditions: for Tumor Volume (cm^3) (Mean ± SD): group mean; for PI (TV), percent inhibition of tumor volume: vs vehicle; for Tumor volumes on Day 15: Length × Width × Width/2
# Experimental: The toxic effects of the dosing regimens were also monitored. […] Meanwhile 9H10 was given in two groups via i.p. on Day 3, 6 and 9. […] Tumor volume and body weight were measured every three days, and tumor weights were measured on Day 16 at the end of the study.
# As per aseptic tissue culture procedures, one vial of B16 melanoma cells was removed from the liquid nitrogen stock, and placed into a 37° C. water bath. Gentle swirling was conducted until the content of the vial was thawed. Using tissue culture/sterile procedures, the cells were immediately centrifuged with a TD5A-WS centrifuge at 1000 rpm, 20-25° C., 5 min. After centrifugation, the cells were suspended in 0.1 to 0.5 mL normal saline (NS) and subcutaneously injected into 10 mice (0.1 mL/mouse, about 1×10^6 cells). After 7-10 days, when the tumor diameter was approximately 1 cm, the animals were euthanized with CO2 overdose and the tumors excised. The procedure was repeated with 20 mice to generate a sufficient number of B16 melanoma cells with adequate transplantability.
# On the day of tumor implantation, approximately 1×10^6 cells in 0.1 mL were subcutaneously injected on the right axillary area of each mouse. The day of tumor implantation was defined as Day 0.
# On Day 3, the animals were randomly assigned into nine different weight-matched and tumor-size-matched groups. Dosing was started on Day 3 using the regimen according to Table 2.
# From Day 1 to Day 15, mortality and moribundity were checked twice daily, the body weights were recorded once every 3 days, and tumors were measured using a caliper once every 3 days. At the end of the study (Day 16), the animals were euthanized by CO2 asphyxiation, and the tumors were excised and weighed.
# Based on the tumor size, the tumor volume (TV) was calculated with the formula: [TV=(Length×Width×Width)/2]. And the percent inhibition (PI) of TV (PITV) was calculated according to the equation below:
# PITV(%)=(TV vehicle−TVdrug treated)/TV vehicle×100
# Inter-group comparison was performed in terms of tumor volume, tumor weight and body weight, using a student's t test. P values of less than 0.05 were considered to be statistically significant.
smiles,measurement,setting,value
"CN(C)/N=N/c1[nH]cnc1C(N)=O [DTIC, Dacarbazine]",Tumor measurement L (length),"Day 3, animal F1",—
same,Tumor measurement W (width),"Day 3, animal F1",—
same,Tumor volume,"Day 3, animal F1",0.0000 cm^3
same,Tumor measurement L (length),"Day 3, animal F2",—
same,Tumor measurement W (width),"Day 3, animal F2",—
same,Tumor volume,"Day 3, animal F2",0.0000 cm^3
same,Tumor measurement L (length),"Day 3, animal F3",0.20 cm
same,Tumor measurement W (width),"Day 3, animal F3",0.20 cm
same,Tumor volume,"Day 3, animal F3",0.0040 cm^3
same,Tumor measurement L (length),"Day 3, animal F4",—
same,Tumor measurement W (width),"Day 3, animal F4",—
same,Tumor volume,"Day 3, animal F4",0.0000 cm^3
same,Tumor measurement L (length),"Day 3, animal F5",—
same,Tumor measurement W (width),"Day 3, animal F5",—
same,Tumor volume,"Day 3, animal F5",0.0000 cm^3
same,Tumor measurement L (length),"Day 3, animal M1",—
same,Tumor measurement W (width),"Day 3, animal M1",—
same,Tumor volume,"Day 3, animal M1",0.0000 cm^3
same,Tumor measurement L (length),"Day 3, animal M2",0.10 cm
same,Tumor measurement W (width),"Day 3, animal M2",0.10 cm
same,Tumor volume,"Day 3, animal M2",0.0005 cm^3
same,Tumor measurement L (length),"Day 3, animal M3",—
same,Tumor measurement W (width),"Day 3, animal M3",—
same,Tumor volume,"Day 3, animal M3",0.0000 cm^3
same,Tumor measurement L (length),"Day 3, animal M4",—
same,Tumor measurement W (width),"Day 3, animal M4",—
same,Tumor volume,"Day 3, animal M4",0.0000 cm^3
same,Tumor measurement L (length),"Day 3, animal M5",0.10 cm
same,Tumor measurement W (width),"Day 3, animal M5",0.10 cm
same,Tumor volume,"Day 3, animal M5",0.0005 cm^3
same,Tumor Volume (cm^3) (Mean ± SD),Day 3,0.001 ± 0.0012 cm^3
same,"PI (TV), percent inhibition of tumor volume",Day 3,−400.00%
same,Tumor measurement L (length),"Day 6, animal F1",—
same,Tumor measurement W (width),"Day 6, animal F1",—
same,Tumor volume,"Day 6, animal F1",0.0000 cm^3
same,Tumor measurement L (length),"Day 6, animal F2",—
same,Tumor measurement W (width),"Day 6, animal F2",—
same,Tumor volume,"Day 6, animal F2",0.0000 cm^3
same,Tumor measurement L (length),"Day 6, animal F3",0.10 cm
same,Tumor measurement W (width),"Day 6, animal F3",0.10 cm
same,Tumor volume,"Day 6, animal F3",0.0005 cm^3
same,Tumor measurement L (length),"Day 6, animal F4",—
same,Tumor measurement W (width),"Day 6, animal F4",—
same,Tumor volume,"Day 6, animal F4",0.0000 cm^3
same,Tumor measurement L (length),"Day 6, animal F5",—
same,Tumor measurement W (width),"Day 6, animal F5",—
same,Tumor volume,"Day 6, animal F5",0.0000 cm^3
same,Tumor measurement L (length),"Day 6, animal M1",—
same,Tumor measurement W (width),"Day 6, animal M1",—
same,Tumor volume,"Day 6, animal M1",0.0000 cm^3
same,Tumor measurement L (length),"Day 6, animal M2",—
same,Tumor measurement W (width),"Day 6, animal M2",—
same,Tumor volume,"Day 6, animal M2",0.0000 cm^3
same,Tumor measurement L (length),"Day 6, animal M3",—
same,Tumor measurement W (width),"Day 6, animal M3",—
same,Tumor volume,"Day 6, animal M3",0.0000 cm^3
same,Tumor measurement L (length),"Day 6, animal M4",—
same,Tumor measurement W (width),"Day 6, animal M4",—
same,Tumor volume,"Day 6, animal M4",0.0000 cm^3
same,Tumor measurement L (length),"Day 6, animal M5",—
same,Tumor measurement W (width),"Day 6, animal M5",—
same,Tumor volume,"Day 6, animal M5",0.0000 cm^3
same,Tumor Volume (cm^3) (Mean ± SD),Day 6,0.000 ± 0.0002 cm^3
same,"PI (TV), percent inhibition of tumor volume",Day 6,90.91%
same,Tumor measurement L (length),"Day 9, animal F1",0.20 cm
same,Tumor measurement W (width),"Day 9, animal F1",0.20 cm
same,Tumor volume,"Day 9, animal F1",0.0040 cm^3
same,Tumor volume,"Day 9, animal F2",0.0000 cm^3
same,Tumor measurement L (length),"Day 9, animal F3",0.10 cm
same,Tumor measurement W (width),"Day 9, animal F3",0.10 cm
same,Tumor volume,"Day 9, animal F3",0.0005 cm^3
same,Tumor measurement L (length),"Day 9, animal F4",0.10 cm
same,Tumor measurement W (width),"Day 9, animal F4",0.10 cm
same,Tumor volume,"Day 9, animal F4",0.0005 cm^3
same,Tumor measurement L (length),"Day 9, animal F5",0.10 cm
same,Tumor measurement W (width),"Day 9, animal F5",0.10 cm
same,Tumor volume,"Day 9, animal F5",0.0005 cm^3
same,Tumor measurement L (length),"Day 9, animal M1",0.30 cm
same,Tumor measurement W (width),"Day 9, animal M1",0.30 cm
same,Tumor volume,"Day 9, animal M1",0.0135 cm^3
same,Tumor measurement L (length),"Day 9, animal M2",0.30 cm
same,Tumor measurement W (width),"Day 9, animal M2",0.30 cm
same,Tumor volume,"Day 9, animal M2",0.0135 cm^3
same,Tumor measurement L (length),"Day 9, animal M3",0.30 cm
same,Tumor measurement W (width),"Day 9, animal M3",0.30 cm
same,Tumor volume,"Day 9, animal M3",0.0135 cm^3
same,Tumor measurement L (length),"Day 9, animal M4",0.30 cm
same,Tumor measurement W (width),"Day 9, animal M4",0.30 cm
same,Tumor volume,"Day 9, animal M4",0.0135 cm^3
same,Tumor measurement L (length),"Day 9, animal M5",0.10 cm
same,Tumor measurement W (width),"Day 9, animal M5",0.10 cm
same,Tumor volume,"Day 9, animal M5",0.0005 cm^3
same,Tumor Volume (cm^3) (Mean ± SD),Day 9,0.006 ± 0.0065 cm^3
same,"PI (TV), percent inhibition of tumor volume",Day 9,71.15%
same,Tumor volume,"Day 12, animal F1",0.0625 cm^3
same,"Tumor measurements on Day 12, L","Day 12, animal F1",0.50 cm
same,"Tumor measurements on Day 12, W","Day 12, animal F1",0.50 cm
same,Tumor volume,"Day 12, animal F2",0.0135 cm^3
same,"Tumor measurements on Day 12, L","Day 12, animal F2",0.30 cm
same,"Tumor measurements on Day 12, W","Day 12, animal F2",0.30 cm
same,Tumor volume,"Day 12, animal F3",0.0135 cm^3
same,"Tumor measurements on Day 12, L","Day 12, animal F3",0.30 cm
same,"Tumor measurements on Day 12, W","Day 12, animal F3",0.30 cm
same,Tumor volume,"Day 12, animal F4",0.1715 cm^3
same,"Tumor measurements on Day 12, L","Day 12, animal F4",0.70 cm
same,"Tumor measurements on Day 12, W","Day 12, animal F4",0.70 cm
same,Tumor volume,"Day 12, animal F5",0.1350 cm^3
same,"Tumor measurements on Day 12, L","Day 12, animal F5",0.3 cm
same,"Tumor measurements on Day 12, W","Day 12, animal F5",0.30 cm
same,Tumor volume,"Day 12, animal M1",0.1715 cm^3
same,"Tumor measurements on Day 12, L","Day 12, animal M1",0.70 cm
same,"Tumor measurements on Day 12, W","Day 12, animal M1",0.70 cm
same,Tumor volume,"Day 12, animal M2",0.3645 cm^3
same,"Tumor measurements on Day 12, L","Day 12, animal M2",0.90 cm
same,"Tumor measurements on Day 12, W","Day 12, animal M2",0.90 cm
same,Tumor volume,"Day 12, animal M3",0.5000 cm^3
same,"Tumor measurements on Day 12, L","Day 12, animal M3",1.00 cm
same,"Tumor measurements on Day 12, W","Day 12, animal M3",1.00 cm
same,Tumor volume,"Day 12, animal M4",0.5000 cm^3
same,"Tumor measurements on Day 12, L","Day 12, animal M4",1.00 cm
same,"Tumor measurements on Day 12, W","Day 12, animal M4",1.00 cm
same,Tumor volume,"Day 12, animal M5",0.0135 cm^3
same,"Tumor measurements on Day 12, L","Day 12, animal M5",0.30 cm
same,"Tumor measurements on Day 12, W","Day 12, animal M5",0.30 cm
same,Tumor Volume (cm^3) (Mean ± SD),Day 12,0.195 ± 0.1932 cm^3
same,"PI (TV), percent inhibition of tumor volume",Day 12,43.22%
same,"Tumor measurements on Day 15, L","Day 15, animal F1",0.80 cm
same,Tumor volumes on Day 15,"Day 15, animal F1",0.2560 cm^3
same,"Tumor measurements on Day 15, W","Day 15, animal F1",0.80 cm
same,"Tumor measurements on Day 15, L","Day 15, animal F2",0.50 cm
same,Tumor volumes on Day 15,"Day 15, animal F2",0.0625 cm^3
same,"Tumor measurements on Day 15, W","Day 15, animal F2",0.50 cm
same,"Tumor measurements on Day 15, L","Day 15, animal F3",0.60 cm
same,Tumor volumes on Day 15,"Day 15, animal F3",0.1080 cm^3
same,"Tumor measurements on Day 15, W","Day 15, animal F3",0.60 cm
same,"Tumor measurements on Day 15, L","Day 15, animal F4",0.70 cm
same,Tumor volumes on Day 15,"Day 15, animal F4",0.1715 cm^3
same,"Tumor measurements on Day 15, W","Day 15, animal F4",0.70 cm
same,"Tumor measurements on Day 15, L","Day 15, animal F5",0.60 cm
same,Tumor volumes on Day 15,"Day 15, animal F5",0.1080 cm^3
same,"Tumor measurements on Day 15, W","Day 15, animal F5",0.60 cm
same,"Tumor measurements on Day 15, L","Day 15, animal M1",1.00 cm
same,Tumor volumes on Day 15,"Day 15, animal M1",0.5000 cm^3
same,"Tumor measurements on Day 15, W","Day 15, animal M1",1.00 cm
same,"Tumor measurements on Day 15, L","Day 15, animal M2",1.20 cm
same,Tumor volumes on Day 15,"Day 15, animal M2",0.8640 cm^3
same,"Tumor measurements on Day 15, W","Day 15, animal M2",1.20 cm
same,"Tumor measurements on Day 15, L","Day 15, animal M3",1.00 cm
same,Tumor volumes on Day 15,"Day 15, animal M3",0.5000 cm^3
same,"Tumor measurements on Day 15, W","Day 15, animal M3",1.00 cm
same,"Tumor measurements on Day 15, L","Day 15, animal M4",1.20 cm
same,Tumor volumes on Day 15,"Day 15, animal M4",0.8640 cm^3
same,"Tumor measurements on Day 15, W","Day 15, animal M4",1.20 cm
same,"Tumor measurements on Day 15, L","Day 15, animal M5",0.90 cm
same,Tumor volumes on Day 15,"Day 15, animal M5",0.3645 cm^3
same,"Tumor measurements on Day 15, W","Day 15, animal M5",0.90 cm
same,Tumor Volume (cm^3) (Mean ± SD),Day 15,0.380 ± 0.2991 cm^3
same,"PI (TV), percent inhibition of tumor volume",Day 15,48.12%
